# ChEMBL document CHEMBL5653615 (J Biol Chem, 2013)
# Columns and labels:
# [1] = molecular target: Death-associated protein kinase 2 (Homo sapiens) (UniProt Q9UIK4); test: Inhibition of human DAPK2 at 18.6 nM by HotSpot assay relative to control
# [2] = molecular target: T1, G protein-coupled receptor kinase 3 (Homo sapiens) (UniProt P35626); test: Inhibition of human GRK3 at 18.6 nM by HotSpot assay relative to control
# T1 sequence (whole entry): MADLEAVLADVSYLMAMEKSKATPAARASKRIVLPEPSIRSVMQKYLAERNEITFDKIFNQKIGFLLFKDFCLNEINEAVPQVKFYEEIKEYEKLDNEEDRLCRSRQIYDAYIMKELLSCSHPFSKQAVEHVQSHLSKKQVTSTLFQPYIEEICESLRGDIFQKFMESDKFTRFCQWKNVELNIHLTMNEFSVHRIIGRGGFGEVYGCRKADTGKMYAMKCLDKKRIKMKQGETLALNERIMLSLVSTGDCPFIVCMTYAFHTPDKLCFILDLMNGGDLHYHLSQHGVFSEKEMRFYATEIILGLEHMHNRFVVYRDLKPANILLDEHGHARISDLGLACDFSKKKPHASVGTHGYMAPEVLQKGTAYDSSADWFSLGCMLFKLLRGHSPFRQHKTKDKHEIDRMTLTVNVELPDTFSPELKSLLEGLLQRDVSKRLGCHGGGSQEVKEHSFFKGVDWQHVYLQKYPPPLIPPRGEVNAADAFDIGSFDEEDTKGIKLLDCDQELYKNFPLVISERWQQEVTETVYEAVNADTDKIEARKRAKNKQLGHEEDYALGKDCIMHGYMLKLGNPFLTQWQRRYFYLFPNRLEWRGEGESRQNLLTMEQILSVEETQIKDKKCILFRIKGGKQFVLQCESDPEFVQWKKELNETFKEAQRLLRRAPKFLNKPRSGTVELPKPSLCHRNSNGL
# [3] = molecular target: STE20-like serine/threonine-protein kinase (Homo sapiens) (UniProt Q9H2G2); test: Inhibition of human STK2 at 18.6 nM by HotSpot assay relative to control
# Chain of STE20-like serine/threonine-protein kinase (Homo sapiens) (Q9H2G2 whole entry, looked up): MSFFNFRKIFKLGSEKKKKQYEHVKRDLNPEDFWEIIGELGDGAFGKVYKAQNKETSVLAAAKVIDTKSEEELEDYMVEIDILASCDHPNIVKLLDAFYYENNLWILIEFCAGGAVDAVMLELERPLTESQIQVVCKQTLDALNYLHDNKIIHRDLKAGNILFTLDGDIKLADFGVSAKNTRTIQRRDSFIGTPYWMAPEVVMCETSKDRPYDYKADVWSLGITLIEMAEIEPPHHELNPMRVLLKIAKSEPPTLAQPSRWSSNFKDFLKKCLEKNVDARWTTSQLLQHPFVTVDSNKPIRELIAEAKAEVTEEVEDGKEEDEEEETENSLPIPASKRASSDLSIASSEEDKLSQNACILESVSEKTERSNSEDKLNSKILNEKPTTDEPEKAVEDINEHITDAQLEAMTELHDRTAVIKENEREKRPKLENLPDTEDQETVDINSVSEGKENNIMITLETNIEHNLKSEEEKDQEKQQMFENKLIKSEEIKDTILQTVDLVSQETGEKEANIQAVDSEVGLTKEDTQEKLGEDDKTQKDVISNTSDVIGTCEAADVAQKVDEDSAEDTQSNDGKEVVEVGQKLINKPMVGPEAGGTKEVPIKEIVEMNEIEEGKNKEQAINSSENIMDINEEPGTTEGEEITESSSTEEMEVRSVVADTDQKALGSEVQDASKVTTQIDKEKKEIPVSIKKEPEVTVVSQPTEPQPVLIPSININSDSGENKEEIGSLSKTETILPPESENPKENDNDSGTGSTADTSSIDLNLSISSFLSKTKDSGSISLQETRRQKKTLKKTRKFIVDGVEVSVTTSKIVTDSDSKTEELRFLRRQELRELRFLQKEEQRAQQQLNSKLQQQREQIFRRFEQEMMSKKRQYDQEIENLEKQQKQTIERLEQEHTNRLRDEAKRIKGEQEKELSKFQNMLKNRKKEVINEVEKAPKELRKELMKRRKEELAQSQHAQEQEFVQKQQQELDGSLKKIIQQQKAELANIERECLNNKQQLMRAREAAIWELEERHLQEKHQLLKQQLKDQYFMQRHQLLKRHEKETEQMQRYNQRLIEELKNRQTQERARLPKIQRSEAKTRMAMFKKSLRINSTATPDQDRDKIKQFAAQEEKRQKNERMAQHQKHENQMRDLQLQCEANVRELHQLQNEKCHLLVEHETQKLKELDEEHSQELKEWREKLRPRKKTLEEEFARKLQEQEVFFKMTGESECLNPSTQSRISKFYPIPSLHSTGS
# [4] = molecular target: Serine/threonine-protein kinase 33 (Homo sapiens) (UniProt Q9BYT3); test: Inhibition of human STK33 at 1.82 nM by HotSpot assay relative to control
# Chain of Serine/threonine-protein kinase 33 (Homo sapiens) (Q9BYT3 whole entry, looked up): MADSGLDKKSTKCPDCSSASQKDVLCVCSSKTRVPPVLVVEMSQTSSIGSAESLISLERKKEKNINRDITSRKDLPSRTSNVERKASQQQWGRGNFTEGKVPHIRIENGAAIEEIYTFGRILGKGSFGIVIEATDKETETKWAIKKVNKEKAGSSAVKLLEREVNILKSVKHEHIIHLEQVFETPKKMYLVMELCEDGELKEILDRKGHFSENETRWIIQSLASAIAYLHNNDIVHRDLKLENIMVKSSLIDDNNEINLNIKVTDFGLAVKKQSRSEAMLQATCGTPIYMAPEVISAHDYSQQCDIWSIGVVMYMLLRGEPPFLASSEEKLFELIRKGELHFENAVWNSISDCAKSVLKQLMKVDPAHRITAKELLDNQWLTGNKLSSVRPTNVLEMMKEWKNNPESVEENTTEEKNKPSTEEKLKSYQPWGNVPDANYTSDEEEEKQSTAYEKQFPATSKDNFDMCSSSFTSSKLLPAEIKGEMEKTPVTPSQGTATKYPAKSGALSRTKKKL
# [5] = molecular target: Serine/threonine-protein kinase PLK1 (Homo sapiens) (UniProt P53350); test: Inhibition of human PLK1 at 1.82 nM by HotSpot assay relative to control
# Chain of Serine/threonine-protein kinase PLK1 (Homo sapiens) (P53350 whole entry): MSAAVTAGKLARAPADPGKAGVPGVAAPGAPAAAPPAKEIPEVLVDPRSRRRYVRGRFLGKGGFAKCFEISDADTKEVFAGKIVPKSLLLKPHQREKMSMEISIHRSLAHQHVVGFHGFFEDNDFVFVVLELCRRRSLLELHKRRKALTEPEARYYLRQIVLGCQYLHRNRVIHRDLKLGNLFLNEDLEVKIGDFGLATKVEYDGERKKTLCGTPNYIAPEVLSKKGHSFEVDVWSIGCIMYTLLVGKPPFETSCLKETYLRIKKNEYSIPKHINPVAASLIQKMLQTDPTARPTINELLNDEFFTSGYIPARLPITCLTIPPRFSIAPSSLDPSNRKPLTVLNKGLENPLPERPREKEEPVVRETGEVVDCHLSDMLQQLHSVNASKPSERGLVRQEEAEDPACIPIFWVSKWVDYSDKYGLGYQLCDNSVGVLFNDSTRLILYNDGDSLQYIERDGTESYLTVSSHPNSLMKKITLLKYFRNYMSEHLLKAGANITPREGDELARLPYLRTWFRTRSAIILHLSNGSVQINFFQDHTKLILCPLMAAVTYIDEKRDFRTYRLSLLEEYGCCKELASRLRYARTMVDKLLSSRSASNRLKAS
# [6] = molecular target: T2, Serine/threonine-protein kinase BRSK2 (Homo sapiens) (UniProt Q8IWQ3); test: Inhibition of human BRSK2 at 1.82 nM by HotSpot assay relative to control
# T2 sequence (whole entry): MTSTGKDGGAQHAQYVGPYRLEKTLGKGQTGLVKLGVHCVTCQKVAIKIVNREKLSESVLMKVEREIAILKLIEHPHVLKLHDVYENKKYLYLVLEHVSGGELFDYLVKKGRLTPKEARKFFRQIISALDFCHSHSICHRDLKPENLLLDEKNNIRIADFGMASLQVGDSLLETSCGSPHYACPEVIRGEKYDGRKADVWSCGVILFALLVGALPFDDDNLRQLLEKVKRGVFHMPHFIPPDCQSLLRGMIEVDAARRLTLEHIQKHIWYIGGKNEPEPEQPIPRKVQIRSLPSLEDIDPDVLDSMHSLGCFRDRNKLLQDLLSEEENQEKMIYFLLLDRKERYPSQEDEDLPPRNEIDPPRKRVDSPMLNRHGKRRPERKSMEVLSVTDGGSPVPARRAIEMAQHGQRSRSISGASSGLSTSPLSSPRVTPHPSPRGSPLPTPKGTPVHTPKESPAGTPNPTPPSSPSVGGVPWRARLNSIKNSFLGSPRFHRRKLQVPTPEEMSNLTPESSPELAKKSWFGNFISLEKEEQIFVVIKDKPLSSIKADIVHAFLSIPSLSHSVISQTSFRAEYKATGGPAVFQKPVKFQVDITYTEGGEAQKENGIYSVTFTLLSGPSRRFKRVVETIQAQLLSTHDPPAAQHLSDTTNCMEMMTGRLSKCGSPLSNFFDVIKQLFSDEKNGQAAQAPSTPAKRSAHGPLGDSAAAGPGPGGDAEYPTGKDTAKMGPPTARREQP
# [7] = molecular target: T3, Discoidin domain-containing receptor 2 (Homo sapiens) (UniProt Q16832); test: Inhibition of human DDR2 at 1.82 nM by HotSpot assay relative to control
# T3 sequence (whole entry): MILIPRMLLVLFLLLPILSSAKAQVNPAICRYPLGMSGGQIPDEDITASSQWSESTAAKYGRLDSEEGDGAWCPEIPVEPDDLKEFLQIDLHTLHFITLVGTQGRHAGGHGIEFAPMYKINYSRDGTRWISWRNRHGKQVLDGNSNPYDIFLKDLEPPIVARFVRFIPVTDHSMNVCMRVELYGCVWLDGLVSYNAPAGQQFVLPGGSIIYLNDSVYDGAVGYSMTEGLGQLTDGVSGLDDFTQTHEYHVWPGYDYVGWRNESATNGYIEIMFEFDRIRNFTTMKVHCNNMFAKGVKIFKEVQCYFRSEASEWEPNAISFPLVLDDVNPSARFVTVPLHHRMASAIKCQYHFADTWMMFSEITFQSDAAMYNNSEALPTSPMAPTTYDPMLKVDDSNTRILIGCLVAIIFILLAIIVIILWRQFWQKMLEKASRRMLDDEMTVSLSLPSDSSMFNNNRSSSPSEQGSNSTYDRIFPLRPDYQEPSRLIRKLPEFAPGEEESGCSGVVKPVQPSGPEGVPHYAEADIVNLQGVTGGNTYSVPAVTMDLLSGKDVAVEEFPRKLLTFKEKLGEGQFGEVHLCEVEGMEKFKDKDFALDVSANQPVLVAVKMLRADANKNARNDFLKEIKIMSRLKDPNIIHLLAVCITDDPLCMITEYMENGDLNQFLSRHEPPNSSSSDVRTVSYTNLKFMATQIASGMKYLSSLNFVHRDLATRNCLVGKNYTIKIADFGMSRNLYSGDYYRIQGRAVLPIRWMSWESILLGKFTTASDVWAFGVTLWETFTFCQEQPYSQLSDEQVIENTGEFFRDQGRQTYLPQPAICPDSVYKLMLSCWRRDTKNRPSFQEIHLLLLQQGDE
# [8] = molecular target: Dual specificity mitogen-activated protein kinase kinase 2 (Homo sapiens) (UniProt P36507); test: Inhibition of human MEK2 at 1.82 nM by HotSpot assay relative to control
# Chain of Dual specificity mitogen-activated protein kinase kinase 2 (Homo sapiens) (P36507 whole entry): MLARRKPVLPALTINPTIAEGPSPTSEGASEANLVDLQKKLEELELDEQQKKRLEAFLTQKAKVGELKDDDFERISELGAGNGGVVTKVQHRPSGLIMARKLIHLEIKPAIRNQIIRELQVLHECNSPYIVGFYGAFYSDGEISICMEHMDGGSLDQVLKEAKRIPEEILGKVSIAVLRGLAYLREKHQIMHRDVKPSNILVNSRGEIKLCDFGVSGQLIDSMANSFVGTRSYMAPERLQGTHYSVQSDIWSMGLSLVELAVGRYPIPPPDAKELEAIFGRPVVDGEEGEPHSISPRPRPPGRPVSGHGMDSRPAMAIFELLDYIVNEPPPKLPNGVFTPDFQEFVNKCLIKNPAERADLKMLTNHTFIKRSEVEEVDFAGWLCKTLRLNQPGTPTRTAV
# Chain of Death-associated protein kinase 2 (Homo sapiens) (Q9UIK4 whole entry, looked up): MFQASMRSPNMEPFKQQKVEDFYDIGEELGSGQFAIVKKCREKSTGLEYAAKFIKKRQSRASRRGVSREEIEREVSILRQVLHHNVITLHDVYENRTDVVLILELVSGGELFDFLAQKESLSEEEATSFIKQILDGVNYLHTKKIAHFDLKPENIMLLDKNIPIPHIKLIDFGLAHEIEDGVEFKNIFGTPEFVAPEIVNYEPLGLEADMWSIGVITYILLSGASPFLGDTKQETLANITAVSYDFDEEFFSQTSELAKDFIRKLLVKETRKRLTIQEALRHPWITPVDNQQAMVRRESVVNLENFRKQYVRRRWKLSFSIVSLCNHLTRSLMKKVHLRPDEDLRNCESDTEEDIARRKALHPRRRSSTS
inhibition [2] [%],inhibition [3] [%],inhibition [4] [%],inhibition [5] [%],inhibition [6] [%],inhibition [7] [%],inhibition [8] [%],SMILES,inhibition [1] [%]
-0.17,9.03,–,–,–,–,–,C[C@]1(O)C[C@@H](c2nc(-c3ccc4ccc(-c5ccccc5)nc4c3)c3c(N)nccn32)C1,0.74
–,–,1.95,-4.97,-3.06,-7.91,1.78,C[C@@]1(C(=O)Nc2ccc(F)nc2)CCCN1c1nc(Nc2cc(C3CC3)n[nH]2)c2cccn2n1,–
